Results as given in patent US7138361B2, “Herbicidal heterocycles” (E. I. du Pont de Nemours and Company, priority 2000, dated 2006).

Experiments:
Experiment in all cases: Test C postemergence
Type in all cases: in vivo
[1] = system: Surinam grass (Brachiaria decumbens)
Summary of the method: (§1)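 Preemergence: seeds sown then treated. Postemergence: plants 2–18 cm, 1- to 4-leaf. Both with surfactant-containing solvent formulation; visual injury scored 0–100 after 12–14 d.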

[2] = system: bermudagrass (Cynodon dactylon)
Summary of the method: as §1

[3] = system: giant foxtail (Setaria faberii)
Summary of the method: as §1

[4] = system: goosegrass (Eleusine indica)
Summary of the method: as §1

[5] = system: johnsongrass (Sorghum halepense)
Summary of the method: as §1

kochia (Kochia scoparia) = system: kochia (Kochia scoparia)
Summary of the method: as §1

[6] = system: lambsquarters (Chenopodium album)
Summary of the method: as §1

[7] = system: morningglory (Ipomoea hederacea)
Summary of the method: as §1

[8] = system: pigweed (Amaranthus retroflexus)
Summary of the method: as §1

soybean (Glycine max) = system: soybean (Glycine max)
Summary of the method: as §1

[9] = system: velvetleaf (Abutilon theophrasti)
Summary of the method: as §1

[10] = system: woolly cupgrass (Eriochloa villosa)
Summary of the method: as §1

[11] = system: yellow nutsedge (Cyperus esculentus)
Summary of the method: as §1

[12] = Rate 125 g/ha, scale 0 to 100, 0 no effect, 100 complete control
[13] = Rate 250 g/ha, scale 0 to 100 (0 no effect, 100 complete control)
[14] = Rate 500 g/ha, scale 0 to 100 (0 no effect, 100 complete control)

COc1cc(N2CCC(n3ccc(C(C)C)n3)C2=O)ccc1Cl (stereo not drawn) [Compound 120]
Plant response rating, Surinam grass ([1]; Rate 62 g/ha, scale 0 to 100): 0 | Plant response rating, Surinam grass [1, 12]: 0 | Plant response rating, Surinam grass [1, 13]: 0 | Plant response rating, Surinam grass [1, 14]: 0 | Plant response rating, Bermudagrass ([2]; Rate 62 g/ha, scale 0 to 100): 0 | Plant response rating, Bermudagrass [2, 12]: 0 | Plant response rating, Bermudagrass [2, 13]: 0 | Plant response rating, Bermudagrass [2, 14]: 70 | Plant response rating, Foxtail, Giant ([3]; Rate 62 g/ha, scale 0 to 100): 0 | Plant response rating, Foxtail, Giant [3, 13]: 0 | Plant response rating, Foxtail, Giant [3, 14]: 70 | Plant response rating, Goosegrass ([4]; Rate 62 g/ha, scale 0 to 100): 0 | Plant response rating, Goosegrass [4, 13]: 0 | Plant response rating, Goosegrass [4, 14]: 60 | Plant response rating, Johnsongrass ([5]; Rate 62 g/ha, scale 0 to 100): 0 | Plant response rating, Johnsongrass [5, 13]: 0 | Plant response rating, Johnsongrass [5, 14]: 0 | Plant response rating, Johnsongrass ([5]; rate not given, scale 0 to 100): 0 | Plant response rating, Kochia (kochia (Kochia scoparia); Rate 62 g/ha, scale 0 to 100): 50 | Plant response rating, Kochia (kochia (Kochia scoparia); [13]): 90 | Plant response rating, Kochia (kochia (Kochia scoparia); [14]): 90 | Plant response rating, Lambsquarters ([6]; Rate 62 g/ha, scale 0 to 100): 50 | Plant response rating, Lambsquarters [6, 13]: 90 | Plant response rating, Lambsquarters [6, 14]: 100 | Plant response rating, Morningglory ([7]; Rate 62 g/ha, scale 0 to 100): 0 | Plant response rating, Morningglory [7, 13]: 90 | Plant response rating, Morningglory [7, 14]: 100 | Plant response rating, Pigweed ([8]; Rate 62 g/ha, scale 0 to 100): 0 | Plant response rating, Pigweed [8, 13]: 60 | Plant response rating, Pigweed [8, 14]: 90 | Plant response rating, Soybean (soybean (Glycine max); Rate 62 g/ha, scale 0 to 100): 30 | Plant response rating, Soybean (soybean (Glycine max); [13]): 60 | Plant response rating, Soybean (soybean (Glycine max); [14]): 60 | Plant response rating, Velvetleaf ([9]; Rate 62 g/ha, scale 0 to 100): 0 | Plant response rating, Velvetleaf [9, 13]: 0 | Plant response rating, Velvetleaf [9, 14]: 0 | Plant response rating, Velvetleaf ([9]; scale 0 to 100): 0 | Plant response rating, Cupgrass, Woolly ([10]; Rate 62 g/ha, scale 0 to 100): 0 | Plant response rating, Cupgrass, Woolly [10, 13]: 0 | Plant response rating, Cupgrass, Woolly [10, 14]: 0 | Plant response rating, Nutsedge ([11]; Rate 62 g/ha, scale 0 to 100): 0 | Plant response rating, Nutsedge [11, 13]: 0 | Plant response rating, Nutsedge [11, 14]: 50

CCCC(C)c1ccn(C2CCN(c3ccc(Cl)c(OC)c3)C2=O)n1 (stereo not drawn) [Compound 121]
Plant response rating, Surinam grass ([1]; Rate 62 g/ha, scale 0 to 100): 0 | Plant response rating, Surinam grass [1, 12]: 0 | Plant response rating, Surinam grass [1, 13]: 0 | Plant response rating, Surinam grass [1, 14]: 0 | Plant response rating, Bermudagrass ([2]; Rate 62 g/ha, scale 0 to 100): 0 | Plant response rating, Bermudagrass [2, 12]: 0 | Plant response rating, Bermudagrass [2, 13]: 0 | Plant response rating, Bermudagrass [2, 14]: 0 | Plant response rating, Foxtail, Giant ([3]; Rate 62 g/ha, scale 0 to 100): 0 | Plant response rating, Foxtail, Giant [3, 13]: 20 | Plant response rating, Foxtail, Giant [3, 14]: 60 | Plant response rating, Goosegrass ([4]; Rate 62 g/ha, scale 0 to 100): 0 | Plant response rating, Goosegrass [4, 13]: 20 | Plant response rating, Goosegrass [4, 14]: 50 | Plant response rating, Johnsongrass ([5]; Rate 62 g/ha, scale 0 to 100): 0 | Plant response rating, Johnsongrass [5, 13]: 0 | Plant response rating, Johnsongrass [5, 14]: 0 | Plant response rating, Johnsongrass ([5]; rate not given, scale 0 to 100): 0 | Plant response rating, Kochia (kochia (Kochia scoparia); Rate 62 g/ha, scale 0 to 100): 70 | Plant response rating, Kochia (kochia (Kochia scoparia); [13]): 70 | Plant response rating, Kochia (kochia (Kochia scoparia); [14]): 90 | Plant response rating, Lambsquarters ([6]; Rate 62 g/ha, scale 0 to 100): 90 | Plant response rating, Lambsquarters [6, 13]: 100 | Plant response rating, Lambsquarters [6, 14]: 100 | Plant response rating, Morningglory ([7]; Rate 62 g/ha, scale 0 to 100): 50 | Plant response rating, Morningglory [7, 13]: 70 | Plant response rating, Morningglory [7, 14]: 100 | Plant response rating, Pigweed ([8]; Rate 62 g/ha, scale 0 to 100): 20 | Plant response rating, Pigweed [8, 13]: 70 | Plant response rating, Pigweed [8, 14]: 90 | Plant response rating, Soybean (soybean (Glycine max); Rate 62 g/ha, scale 0 to 100): 50 | Plant response rating, Soybean (soybean (Glycine max); [13]): 60 | Plant response rating, Soybean (soybean (Glycine max); [14]): 70 | Plant response rating, Velvetleaf ([9]; Rate 62 g/ha, scale 0 to 100): 0 | Plant response rating, Velvetleaf [9, 13]: 20 | Plant response rating, Velvetleaf [9, 14]: 40 | Plant response rating, Velvetleaf ([9]; scale 0 to 100): 0 | Plant response rating, Cupgrass, Woolly ([10]; Rate 62 g/ha, scale 0 to 100): 0 | Plant response rating, Cupgrass, Woolly [10, 13]: 30 | Plant response rating, Cupgrass, Woolly [10, 14]: 60 | Plant response rating, Nutsedge ([11]; Rate 62 g/ha, scale 0 to 100): 0 | Plant response rating, Nutsedge [11, 13]: 0 | Plant response rating, Nutsedge [11, 14]: 0

Cc1ccc(N2CCC(n3ccc(C(C)(C)C)n3)C2=O)cc1I (stereo not drawn) [Compound 122]
Plant response rating, Surinam grass ([1]; Rate 62 g/ha, scale 0 to 100): 0 | Plant response rating, Surinam grass [1, 12]: 0 | Plant response rating, Surinam grass [1, 13]: 0 | Plant response rating, Surinam grass [1, 14]: 0 | Plant response rating, Bermudagrass ([2]; Rate 62 g/ha, scale 0 to 100): 0 | Plant response rating, Bermudagrass [2, 12]: 0 | Plant response rating, Bermudagrass [2, 13]: 0 | Plant response rating, Bermudagrass [2, 14]: 0 | Plant response rating, Foxtail, Giant ([3]; Rate 62 g/ha, scale 0 to 100): 0 | Plant response rating, Foxtail, Giant [3, 13]: 0 | Plant response rating, Foxtail, Giant [3, 14]: 40 | Plant response rating, Goosegrass ([4]; Rate 62 g/ha, scale 0 to 100): 0 | Plant response rating, Goosegrass [4, 13]: 0 | Plant response rating, Goosegrass [4, 14]: 0 | Plant response rating, Johnsongrass ([5]; Rate 62 g/ha, scale 0 to 100): 0 | Plant response rating, Johnsongrass [5, 13]: 0 | Plant response rating, Johnsongrass [5, 14]: 0 | Plant response rating, Johnsongrass ([5]; rate not given, scale 0 to 100): 0 | Plant response rating, Kochia (kochia (Kochia scoparia); Rate 62 g/ha, scale 0 to 100): 90 | Plant response rating, Kochia (kochia (Kochia scoparia); [13]): 100 | Plant response rating, Kochia (kochia (Kochia scoparia); [14]): 100 | Plant response rating, Lambsquarters ([6]; Rate 62 g/ha, scale 0 to 100): 100 | Plant response rating, Lambsquarters [6, 13]: 100 | Plant response rating, Lambsquarters [6, 14]: 100 | Plant response rating, Morningglory ([7]; Rate 62 g/ha, scale 0 to 100): 20 | Plant response rating, Morningglory [7, 13]: 90 | Plant response rating, Morningglory [7, 14]: 100 | Plant response rating, Pigweed ([8]; Rate 62 g/ha, scale 0 to 100): 40 | Plant response rating, Pigweed [8, 13]: 100 | Plant response rating, Pigweed [8, 14]: 100 | Plant response rating, Soybean (soybean (Glycine max); Rate 62 g/ha, scale 0 to 100): 40 | Plant response rating, Soybean (soybean (Glycine max); [13]): 50 | Plant response rating, Soybean (soybean (Glycine max); [14]): 60 | Plant response rating, Velvetleaf ([9]; Rate 62 g/ha, scale 0 to 100): 0 | Plant response rating, Velvetleaf [9, 13]: 0 | Plant response rating, Velvetleaf [9, 14]: 20 | Plant response rating, Velvetleaf ([9]; scale 0 to 100): 0 | Plant response rating, Cupgrass, Woolly ([10]; Rate 62 g/ha, scale 0 to 100): 0 | Plant response rating, Cupgrass, Woolly [10, 13]: 20 | Plant response rating, Cupgrass, Woolly [10, 14]: 20 | Plant response rating, Nutsedge ([11]; Rate 62 g/ha, scale 0 to 100): 0 | Plant response rating, Nutsedge [11, 13]: 0 | Plant response rating, Nutsedge [11, 14]: 0
